Patent publication US20210369684A1 (MOUNT TAM THERAPEUTICS, INC., priority 2018, published 2021)

Tests used:
[1] = test system: 6-OHDA injected mice; test: Anti-TH immunohistochemistry, 6-OHDA-induced neuronal loss (TH-positive somas in SN); format: in vivo, mouse; conditions: one-way ANOVA, FIG. 4B
Procedure: Immunohistochemistry analysis using anti-tyrosine hydroxylase (TH) antibody was also performed to quantify 6-OHDA-induced neuronal loss in mice injected with 6-OHDA and non-injected (control) sides of the brain. […] FIG. 4B presents the mean and standard error of the mean (SEM) as well as statistical analysis of the results.

[2] = test system: 6-OHDA injected mice; test: Anti-TH immunohistochemistry, 6-OHDA-induced striatal denervation; format: in vivo, mouse; conditions: one-way ANOVA, FIG. 3B
Procedure: Immunohistochemistry analysis using anti-tyrosine hydroxylase (TH) antibody was performed in mouse midbrain sections to quantify 6-OHDA-induced striatal denervation in mice injected with 6-OHDA and non-injected (control) sides of the brain. […] In contrast, both the 6-OHDA/rapamycin-treated and the 6-OHDA/Formula II-treated sides of the brain show increased staining with the anti-TH antibody, as indicated by the dark shading in those figures. FIG. 3B presents the mean and standard error of the mean (SEM) of the integrated density of anti-TH antibody staining in the striatum, as well as statistical analysis of the results for the groups of mice.

In the case of CO[C@H]1C[C@@H]2CC[C@@H](C)[C@@](O)(O2)C(=O)C(=O)N2CCCC[C@H]2C(=O)O[C@H]([C@H](C)C[C@@H]2CC[C@@H](O)[C@H](OC)C2)CC(=O)[C@H](C)/C=C(\C)[C@@H](O)[C@@H](OC)C(=O)[C@H](C)C[C@H](C)/C=C/C=C/C=C/1C [rapamycin, Rapamycin, reference compound], the “TH+ neuronal loss, p versus vehicle control” value [1] is reported as < 0.001 and the “integrated density of anti-TH staining in striatum, p versus vehicle control” value [2] is reported as < 0.05.
